Measurements: ChEMBL document CHEMBL1268980, “2-Aryl benzimidazoles: human SCD1-specific stearoyl coenzyme-A desaturase inhibitors” (Bioorg Med Chem Lett, 2010)

Tests used:
Acyl-CoA desaturase 1 = target: T1, Acyl-CoA desaturase 1 (Rattus norvegicus, UniProt P07308); assay: Inhibition of rat SCD1
T1 sequence (P07308 whole entry): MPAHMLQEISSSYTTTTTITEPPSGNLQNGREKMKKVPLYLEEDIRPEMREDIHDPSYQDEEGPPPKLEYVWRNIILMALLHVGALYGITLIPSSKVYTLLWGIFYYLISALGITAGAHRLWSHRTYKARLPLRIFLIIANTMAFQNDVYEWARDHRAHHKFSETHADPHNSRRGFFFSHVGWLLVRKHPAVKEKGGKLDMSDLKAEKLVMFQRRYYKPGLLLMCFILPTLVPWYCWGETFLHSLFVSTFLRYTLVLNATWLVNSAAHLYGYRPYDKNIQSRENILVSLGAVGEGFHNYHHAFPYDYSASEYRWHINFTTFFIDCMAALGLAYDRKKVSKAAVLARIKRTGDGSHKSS

[1] = target: T2, Stearoyl-CoA desaturase 5 (Homo sapiens, UniProt Q86SK9); assay: Inhibition of human SCD5
T2 sequence (Q86SK9 whole entry): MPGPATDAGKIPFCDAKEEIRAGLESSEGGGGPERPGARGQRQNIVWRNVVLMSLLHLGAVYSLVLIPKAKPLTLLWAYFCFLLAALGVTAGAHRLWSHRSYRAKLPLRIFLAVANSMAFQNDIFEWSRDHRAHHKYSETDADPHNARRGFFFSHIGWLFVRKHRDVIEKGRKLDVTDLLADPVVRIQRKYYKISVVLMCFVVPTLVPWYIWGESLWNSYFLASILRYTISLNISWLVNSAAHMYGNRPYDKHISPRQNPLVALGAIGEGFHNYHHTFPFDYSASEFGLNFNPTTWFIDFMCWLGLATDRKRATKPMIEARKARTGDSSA

Stearoyl-CoA desaturase = target: T3, Stearoyl-CoA desaturase (Homo sapiens, UniProt O00767); assay: Inhibition of human SCD1
T3 sequence (O00767 whole entry): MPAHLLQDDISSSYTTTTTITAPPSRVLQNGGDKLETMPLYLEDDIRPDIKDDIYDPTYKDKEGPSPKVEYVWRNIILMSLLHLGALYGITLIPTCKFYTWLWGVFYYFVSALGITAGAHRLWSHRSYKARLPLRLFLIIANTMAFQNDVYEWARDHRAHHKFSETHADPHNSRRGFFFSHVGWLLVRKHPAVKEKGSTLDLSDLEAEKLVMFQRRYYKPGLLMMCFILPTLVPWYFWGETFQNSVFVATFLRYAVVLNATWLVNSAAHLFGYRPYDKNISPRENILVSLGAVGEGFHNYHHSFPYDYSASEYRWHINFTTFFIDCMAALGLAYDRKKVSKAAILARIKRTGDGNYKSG

[2] = target: T4, Acyl-CoA (8-3)-desaturase (Rattus norvegicus, UniProt Q920R3); assay: Inhibition of rat Delta(5) fatty acid desaturase by cell based assay
T4 sequence (Q920R3 whole entry): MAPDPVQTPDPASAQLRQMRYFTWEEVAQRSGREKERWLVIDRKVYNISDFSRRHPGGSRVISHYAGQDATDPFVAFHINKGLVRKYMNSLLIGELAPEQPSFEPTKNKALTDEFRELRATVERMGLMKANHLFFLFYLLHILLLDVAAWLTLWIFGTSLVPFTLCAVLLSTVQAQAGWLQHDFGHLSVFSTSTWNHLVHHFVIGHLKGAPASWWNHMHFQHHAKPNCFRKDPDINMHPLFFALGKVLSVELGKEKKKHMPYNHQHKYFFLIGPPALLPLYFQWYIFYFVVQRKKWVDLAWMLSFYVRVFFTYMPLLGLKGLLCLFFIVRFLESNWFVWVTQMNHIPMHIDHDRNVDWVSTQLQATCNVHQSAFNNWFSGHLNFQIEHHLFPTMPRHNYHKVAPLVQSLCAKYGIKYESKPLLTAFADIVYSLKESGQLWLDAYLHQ

[3] = target: Acyl-CoA (8-3)-desaturase (Homo sapiens, UniProt O60427); assay: Inhibition of Delta(5) fatty acid desaturase in human HepG2 cells; type: cell-based
Acyl-CoA (8-3)-desaturase (Homo sapiens, UniProt O60427), sequence (O60427 whole entry): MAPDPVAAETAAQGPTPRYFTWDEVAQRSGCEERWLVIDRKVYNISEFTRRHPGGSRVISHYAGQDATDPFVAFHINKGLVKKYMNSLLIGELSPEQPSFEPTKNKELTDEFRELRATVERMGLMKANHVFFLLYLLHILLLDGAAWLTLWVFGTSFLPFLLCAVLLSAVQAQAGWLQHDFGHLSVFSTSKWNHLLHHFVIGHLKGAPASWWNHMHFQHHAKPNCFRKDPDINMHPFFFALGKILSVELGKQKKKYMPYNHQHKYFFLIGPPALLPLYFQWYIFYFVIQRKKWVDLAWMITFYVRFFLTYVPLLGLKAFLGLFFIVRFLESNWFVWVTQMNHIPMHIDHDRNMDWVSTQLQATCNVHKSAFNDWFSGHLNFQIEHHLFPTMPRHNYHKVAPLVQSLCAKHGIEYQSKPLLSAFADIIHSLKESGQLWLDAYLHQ

[4] = target: T4, Acyl-CoA (8-3)-desaturase; assay: Inhibition of Delta(5) fatty acid desaturase in freshly isolated rat hepatocytes; type: cell-based, Hepatocyte
[5] = Oral bioavailability in C57BL/6 mouse at 10 mg/kg, po; type: ADME, organism-based, C57BL6; conditions: in vivo
[6] = Terminal half life in C57BL/6 mouse at 10 mg/kg, po or 2 mg/kg, iv; type: ADME, organism-based, C57BL6; conditions: in vivo, read-out: beta t1/2 (converted)
[7] = AUC in C57BL/6 mouse plasma at 10 mg/kg, po or 2 mg/kg, iv; type: ADME, organism-based, C57BL6
[8] = Plasma clearance in C57BL/6 mouse at 10 mg/kg, po or 2 mg/kg, iv; type: ADME, organism-based, C57BL6
[9] = Volume of distribution at steady state in C57BL/6 mouse at 10 mg/kg, po or 2 mg/kg, iv; type: ADME, organism-based, C57BL6; conditions: in vivo, read-out: Vdss
[10] = Oral bioavailability in Beagle dog at 2 mg/kg, po; type: ADME, organism-based, Canis lupus familiaris; conditions: in vivo
[11] = Half life in Beagle dog at 2 mg/kg, po or 0.5 mg/kg, iv; type: ADME, organism-based, Canis lupus familiaris; conditions: in vivo
[12] = AUC in Beagle dog plasma at 2 mg/kg, po or 0.5 mg/kg, iv; type: ADME, organism-based, Canis lupus familiaris
[13] = Plasma clearance in Beagle dog at 2 mg/kg, po or 0.5 mg/kg, iv; type: ADME, organism-based, Canis lupus familiaris
[14] = Volume of distribution at steady state in Beagle dog at 2 mg/kg, po or 0.5 mg/kg, iv; type: ADME, organism-based, Canis lupus familiaris; conditions: in vivo, read-out: Vdss
Mus musculus [15] = assay: Inhibition of SCD activity in po dosed high sucrose/fat free diet fed C57BL/6 mouse assessed as reduction in conversion of [14C]stearic acid to [14C]oleic acid; type: functional, organism-based; conditions: C57BL6
Mus musculus [16] = assay: Inhibition of SCD activity in high sucrose/fat free diet fed C57BL/6 mouse assessed as reduction in conversion of [14C]stearic acid to [14C]oleic acid at 30 mg/kg, po; type: functional; conditions: C57BL6
Mus musculus [17] = assay: Inhibition of SCD activity in high sucrose/fat free diet fed C57BL/6 mouse assessed as reduction in conversion of [14C]stearic acid to [14C]oleic acid at 100 mg/kg, po; type: functional; conditions: C57BL6
[18] = Drug level in high sucrose/fat free diet fed C57BL/6 mouse plasma at 30 mg/kg, po after 3 hrs post dose; type: ADME, organism-based, C57BL6; set-up: dose 30 mg/kg, route oral
[19] = Drug level in high sucrose/fat free diet fed C57BL/6 mouse plasma at 100 mg/kg, po after 3 hrs post dose; type: ADME, organism-based, C57BL6; set-up: dose 100 mg/kg, route oral
[20] = Drug level in high sucrose/fat free diet fed C57BL/6 mouse liver at 30 mg/kg, po after 3 hrs post dose; type: ADME, organism-based, C57BL6; set-up: dose 30 mg/kg, route oral; conditions: read-out: Drug uptake
[21] = Drug level in high sucrose/fat free diet fed C57BL/6 mouse liver at 100 mg/kg, po after 3 hrs post dose; type: ADME, organism-based, C57BL6; set-up: dose 100 mg/kg, route oral; conditions: read-out: Drug uptake

Row | SMILES | IC50 (Acyl-CoA desaturase 1) [µM] | IC50 [1] [µM] | IC50 (Stearoyl-CoA desaturase) [µM] | further results
1 | CS(=O)(=O)c1ccc2nc(-c3ccc(-c4ccsc4)cc3)[nH]c2c1 | 0.104 | – | – | –
2 | Cn1c(-c2ccc(-c3ccccc3F)nc2)nc2ccc(S(C)(=O)=O)cc21 | > 20 | – | – | –
3 | CS(=O)(=O)c1ccc2nc(-c3ccc(-c4cccnc4)cc3)[nH]c2c1 | 0.425 | – | – | –
4 | Cc1cccc(-c2ccc(-c3nc4ccc(S(C)(=O)=O)cc4[nH]3)cc2)c1 | 0.319 | – | – | –
5 | CS(=O)(=O)c1cnc2nc(-c3ccc(-c4ccccc4F)cc3)[nH]c2c1 | 0.156 | > 20 | – | –
6 | CC(C)(C)c1ccc2nc(-c3ccc(-c4ccccc4F)cc3)[nH]c2c1 | 0.175 | > 20 | 0.731 | –
7 | Cc1ccc(-c2ccc(-c3nc4ccc(S(C)(=O)=O)cc4[nH]3)cc2)cc1 | > 20 | – | – | –
8 | CS(=O)(=O)c1ccc2nc(-c3ccc(-c4ccccc4Cl)cc3)[nH]c2c1 | 4.49 | > 20 | 0.255 | –
9 | CS(=O)(=O)c1ccc2nc(-c3ccc(-c4ccccc4F)cn3)[nH]c2c1 | 0.227 | – | – | –
10 | CN(C)S(=O)(=O)c1ccc2nc(-c3ccc(-c4ccccc4F)cc3)[nH]c2c1 | 0.528 | – | – | –
11 | CS(=O)(=O)c1ccc2nc(-c3ccc(-c4ccc(F)cc4)cc3)[nH]c2c1 | 0.025 | – | – | –
12 | CS(=O)(=O)c1ccc2nc(-c3cnc(-c4ccccc4)nc3)[nH]c2c1 | 0.489 | – | – | –
13 | CS(=O)(=O)c1ccc2nc(-c3ccc(-c4cccc(F)c4)cc3)[nH]c2c1 | 0.021 | > 20 | 0.03 | –
14 | CS(=O)(=O)c1ccc2nc(-c3ccc(-c4cc(Cl)ccc4F)cc3)[nH]c2c1 | 0.278 | – | – | –
15 | CS(=O)(=O)c1ccc2nc(-c3ccc(-c4ccccc4)cc3)sc2c1 | > 20 | – | – | –
16 | CS(=O)(=O)c1ccc2nc(-c3ccc(-c4cccc(O)c4)cc3)[nH]c2c1 | 0.396 | > 20 | 0.342 | –
17 | CS(=O)(=O)c1ccc2nc(-c3ccc(-c4ccncc4)cc3)[nH]c2c1 | 2.47 | > 20 | 4.25 | –
18 | CS(=O)(=O)c1ccc2nc(-c3ccc(-c4ccccc4F)cc3)[nH]c2c1 | 0.065 | > 20 | 0.027 | IC50 [2]: > 50 µM; IC50 [3]: 1.32 µM; IC50 [4]: 5.17 µM; bioavailability [5]: 39%; half-life [6]: 35.5 h; AUC [7]: 8 µM·h; clearance [8]: 20 mL/min/kg; Vd [9]: 2.9 L/kg; bioavailability [10]: 70%; half-life [11]: 1.1 h; AUC [12]: 2.4 µM·h; clearance [13]: 26 mL/min/kg; Vd [14]: 2 L/kg; inhibition (Mus musculus [15]): Dose-dependent effect; inhibition in vivo at 30 mg/kg (Mus musculus [16]): 36%; inhibition in vivo at 100 mg/kg (Mus musculus [17]): 78%; concentration at 3 h [18]: 6.5 µM; concentration at 3 h [19]: 13.2 µM; concentration at 3 h [20]: 10.1 µM; concentration at 3 h [21]: 31.9 µM
19 | CS(=O)(=O)c1ccc2nc(-c3ccc(-c4ccoc4)cc3)[nH]c2c1 | 0.395 | > 20 | 1.7 | –
20 | CS(=O)(=O)c1ccc2nc(-c3ccc(-c4cccc(Cl)c4)cc3)[nH]c2c1 | 0.148 | > 10 | 0.015 | –
21 | CS(=O)(=O)c1ccc2nc(-c3ccc(-c4ccc(Cl)cc4)cc3)[nH]c2c1 | > 20 | – | – | –
22 | CS(=O)(=O)c1ccc2nc(-c3ccc(-c4ccc(O)cc4)cc3)[nH]c2c1 | 0.304 | > 20 | 2.33 | –
23 | CS(=O)(=O)c1ccc2nc(-c3ccc(Br)cc3)[nH]c2c1 | > 20 | – | – | –
24 | NS(=O)(=O)c1ccc2nc(-c3ccc(-c4ccccc4F)cc3)[nH]c2c1 | 0.343 | > 20 | 0.074 | –
25 | CS(=O)(=O)c1ccc2nc(-c3ccc(-c4ccccc4)cc3)cn2c1 | > 20 | – | – | –

Now from value to compound, other results behind:

Row | IC50 (Acyl-CoA desaturase 1) [µM] | IC50 [1] [µM] | IC50 (Stearoyl-CoA desaturase) [µM] | SMILES | further results
26 | > 20 | – | – | Fc1ccccc1-c1ccc(-c2nc3ccccc3[nH]2)cc1 | –
27 | 0.472 | – | – | Cc1ccsc1-c1ccc(-c2nc3ccc(S(C)(=O)=O)cc3[nH]2)cc1 | –
28 | 0.095 | – | – | CS(=O)(=O)c1ccc2nc(-c3ccc(-c4cccc(Cl)c4F)cc3)[nH]c2c1 | –
29 | > 20 | – | – | CS(=O)(=O)c1ccc2nc(-c3ccc(-c4ccc(-c5ccccc5)s4)cc3)[nH]c2c1 | –
30 | 3.86 | – | – | Cc1ccccc1-c1ccc(-c2nc3ccc(S(C)(=O)=O)cc3[nH]2)cc1 | –
31 | 0.058 | > 20 | 0.019 | CS(=O)(=O)c1ccc2nc(-c3ccc(-c4ccccc4F)nc3)[nH]c2c1 | –
32 | 0.042 | > 20 | 0.06 | CS(=O)(=O)c1ccn2cc(-c3ccc(-c4ccccc4)cc3)nc2c1 | –
33 | 0.097 | > 20 | – | CS(=O)(=O)c1ccc2nc(-c3ccc(-c4cccs4)cc3)[nH]c2c1 | –
34 | 1.25 | > 20 | 1.31 | CCS(=O)(=O)c1ccc2nc(-c3ccc(-c4ccccc4F)cc3)[nH]c2c1 | –
35 | 0.336 | – | – | CS(=O)(=O)c1ccc2nc(-c3ccc(-c4ccccc4O)cc3)[nH]c2c1 | –
36 | > 20 | > 20 | > 20 | N#Cc1ccc2nc(-c3ccc(-c4ccccc4F)cc3)[nH]c2c1 | –
37 | 0.697 | – | – | CSc1ccc2nc(-c3ccc(-c4ccccc4F)cc3)[nH]c2c1 | –
38 | 0.401 | – | – | O=S(=O)(c1ccc2nc(-c3ccc(-c4ccccc4F)cc3)[nH]c2c1)C1CC1 | –
39 | 1.71 | > 20 | 1.76 | CS(=O)(=O)c1ccc2nc(-c3ccc(-c4ccccn4)cc3)[nH]c2c1 | –
40 | 0.472 | > 20 | 0.096 | C[S+]([O-])c1ccc2nc(-c3ccc(-c4ccccc4F)cc3)[nH]c2c1 (stereo not drawn) | –
41 | 2.49 | – | – | Cn1c(-c2ccc(-c3ccccc3F)nc2)nc2cc(S(C)(=O)=O)ccc21 | –
42 | 0.02 | > 10 | 0.024 | CS(=O)(=O)c1ccc2nc(-c3ccc(-c4ccccc4)cc3)[nH]c2c1 | –
